Source: patent US20190365680A1, “USE OF EP4 RECEPTOR ANTAGONISTS FOR THE TREATMENT OF NASH-ASSOCIATED LIVER CANCER” (AskAt Inc., priority 2016, published 2019)

Tests used:
[1] = Body weight in the NASH-associated mouse liver cancer model; assay type: in vivo; conditions: 30 mg/kg QD from 19 to 30 weeks of age; weight at the age of 30 weeks
Description: FIG. 4 depicts the average body weight of the vehicle-treated group and Compound A-treated group at the age of 30 weeks. Data are represented as means ±SD.
(§1) This mouse model was developed by treating with DMBA, 7,12-dimethylbenz(a)anthracene, and by feeding a high fat diet (HFD) (NPL 15). […] In this experiment, Compound A 30 mg/kg QD was administered to the mice every day from 19 weeks of age to 30 weeks of age (FIG. 1). As a control, a separate group of mice were treated only with a vehicle and no active ingredient.

[2] = system: obesity-induced NASH-associated liver cancer; assay: Obesity-induced (DMBA + high fat diet) NASH-associated mouse liver cancer model: liver tumor development; assay type: in vivo
Description: FIG. 1 depicts a mouse model timeline developed by treating with 7,12-dimethylbenz(a)anthracene (“DMBA”), and by feeding with a high fat diet (HFD). Compound A was administered to the mice every day from 19 weeks of age to 30 weeks of age and then euthanized (“Eut”).
FIG. 2 is macroscopic photographs of the liver isolated from the vehicle-treated mice (left side) and Compound A-treated mice (right side). […] Compound A or a vehicle (n=5, each) were treated to the mice every day from 19 weeks of age to 30 weeks of age. Arrowheads identify hepatocellular carcinomas (HCCs).
FIG. 3 depicts the average liver tumor numbers and the relative size distribution (classified as >6 mm, 2-6 mm, ≤2 mm). “NS” means not significant.
C57/BL6 mice were purchased from CLEA Japan Inc. The Tlr2^−/− mice (C57/BL6) were purchased from Oriental Yeast Co. Ltd.
Hematoxylin and eosin staining and immunofluorescence analysis were performed as previously described (Yoshimoto et al., Nature, 2013, 499:97-101).
P values less than 0.05 were considered significant. “NS” indicates not significant.
as §1

[3] = system: immune cells obtained from mouse livers; conditions: liver; 30 mg/kg QD from 19 to 30 weeks of age; vs vehicle
Description: FIG. 5A depicts flow cytometry analysis of immune cells between vehicle-treated mice or Compound A-treated mice. The percentages of total CD11c^hi MHC class II (MHC II)^hi, CD11b^+ CD11c^hi MHC II^hi, or CD103^+ CD11c^hi MHC II^hi cells were analyzed by flow cytometry. Data are represented as means ±SEM.
FIG. 6A depicts the percentages of CD3^+ CD4^+ Foxp3^+, CD3^+ CD4^+ Foxp3^−, CD3^+ CD8^+ cells analyzed by flow cytometry. The ratio of CD8^+ T cells to CD4^+ Foxp3^+ Tregs was calculated. Data are represented as means ±SEM. NS=not significant, *p<0.05, **p<0.01.
In FIG. 7A, the percentages of CD69^+ CD8^+ cells were analyzed by flow cytometry (*p<0.05, **p<0.01).
In FIG. 8A, the percentages of PD-1^+ CD8^+ cells were analyzed by flow cytometry (*p<0.05, **p<0.01).
Immune cells were obtained from mouse livers and were subjected to measuring cytokine production and flow cytometric analysis.
Data were analyzed by unpaired t-test with Welch correction (two-side) or Man-Whitney test (two-side). P values less than 0.05 were considered significant. “NS” indicates not significant.
The impact of EP4 blockage on the prevalence and activation status of immune cells was assessed.

C[C@H](NC(=O)c1cc(Cl)cnc1Oc1cccc(F)c1)c1ccc(C(=O)O)cc1 [Compound A, 4-[(1S)-1-({[5-chloro-2-(3-fluorophenoxy)pyridin-3-yl]carbonyl}amino)ethyl]-benzoic acid]
body weight [1]: did not influence | Hepatocellular carcinoma (HCC) development compared to vehicle-treated mice ([2]; C57/BL6 mice, DMBA + HFD, 30 mg/kg QD every day from 19 to 30 weeks of age): strongly reduced | Tumor colony sized more than 6 mm ([2]; DMBA + HFD mice, treated every day from 19 to 30 weeks of age): completely disappeared | tumor number in the liver compared to vehicle-treated mice ([2]; DMBA + HFD mice, treated every day from 19 to 30 weeks of age, n=5): significantly inhibited | frequency of CD4+Foxp3+ regulatory T cells (Tregs) [3]: significantly reduced | frequency of CD8+ T cells [3]: not changed | frequency of CD11b+ DCs [3]: not changed | frequency of CD11chi MHC class IIhi dendritic cells (DCs) [3]: not changed | number of CD8+ T cells expressing programmed cell death-1 (PD-1) [3]: significantly reduced | number of CD8+ T cells expressing the activation marker CD69 [3]: significantly increased | population of CD103+ DCs [3]: increased | ratio of CD8+ T cells to Tregs [3]: increased
